Test results reported in ChEMBL document CHEMBL1201862, “PubChem BioAssay data set” (2004).
Activity calls are given as the source filed them.

What was measured:
[1] = target: Large T antigen (Simian virus 40, UniProt P03070); assay type: functional, Betapolyomavirus macacae;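 note: Confirmatory-stage PubChem screen for compounds that inhibit SV40 T antigen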
[2] = mitochondrial function rescue without frataxin homolog – Friedreich's ataxia, plus single-dose screen, dose response (AID 1465); assay type: functional;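 note: yeast depleted of Yfh1p frataxin homolog grown on glycerol needing respiration; WST-1 tetrazolium dye reduction as measure of cellular dehydrogenase metabolic activity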
[3] = luciferase reporter signal suppression in cells – H4 neuroglioma cells, luminescence, dose response (AID 1990); assay type: functional, cell-based
[4] = target: T1, Luciferin 4-monooxygenase (Photinus pyralis, UniProt P08659); assay: Counter Screen for Luciferase-based Assay Positives. [Related pubchem assays: 620, 618, 411 ]
T1 sequence (P08659 whole entry): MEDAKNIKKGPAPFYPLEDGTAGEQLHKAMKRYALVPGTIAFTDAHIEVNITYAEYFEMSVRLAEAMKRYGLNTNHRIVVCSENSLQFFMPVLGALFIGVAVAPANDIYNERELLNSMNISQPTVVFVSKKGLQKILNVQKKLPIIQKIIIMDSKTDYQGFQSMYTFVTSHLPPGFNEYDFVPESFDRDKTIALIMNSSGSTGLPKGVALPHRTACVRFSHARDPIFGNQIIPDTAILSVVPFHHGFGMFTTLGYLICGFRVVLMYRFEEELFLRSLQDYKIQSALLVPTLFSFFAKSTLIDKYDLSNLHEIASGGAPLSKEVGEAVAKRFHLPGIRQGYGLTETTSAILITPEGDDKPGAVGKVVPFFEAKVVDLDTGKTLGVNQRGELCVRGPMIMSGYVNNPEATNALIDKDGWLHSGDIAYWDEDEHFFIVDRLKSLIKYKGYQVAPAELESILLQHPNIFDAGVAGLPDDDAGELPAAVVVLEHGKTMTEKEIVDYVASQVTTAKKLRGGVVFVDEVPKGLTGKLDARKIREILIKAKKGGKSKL

[5] = Luminescence Cell-Based Dose Response HTS to Identify Inhibitors of 5'UTR Stem-Loop Driven Prion Protein mRNA Translation in H4 Neuroglioblastoma Cells. [Related pubchem assays: 1827 (Project Summary), 1813 (Primary HTS)]; assay type: functional
[6] = target: T2, Heat shock factor protein 1 (Mus musculus, UniProt P38532); assay: decrease of HSF1-responsive luciferase luminescence – cell-based, NIH3T3, dose retest, confirmation (AID 2382); assay type: functional;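 note: NIH3T3 fibroblasts with HSF1-driven luciferase reporter stressed by proteasome inhibitor MG132; luminescence from HSF1-driven luciferase expression after 8 hours of MG132 stress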
T2 sequence (P38532 whole entry): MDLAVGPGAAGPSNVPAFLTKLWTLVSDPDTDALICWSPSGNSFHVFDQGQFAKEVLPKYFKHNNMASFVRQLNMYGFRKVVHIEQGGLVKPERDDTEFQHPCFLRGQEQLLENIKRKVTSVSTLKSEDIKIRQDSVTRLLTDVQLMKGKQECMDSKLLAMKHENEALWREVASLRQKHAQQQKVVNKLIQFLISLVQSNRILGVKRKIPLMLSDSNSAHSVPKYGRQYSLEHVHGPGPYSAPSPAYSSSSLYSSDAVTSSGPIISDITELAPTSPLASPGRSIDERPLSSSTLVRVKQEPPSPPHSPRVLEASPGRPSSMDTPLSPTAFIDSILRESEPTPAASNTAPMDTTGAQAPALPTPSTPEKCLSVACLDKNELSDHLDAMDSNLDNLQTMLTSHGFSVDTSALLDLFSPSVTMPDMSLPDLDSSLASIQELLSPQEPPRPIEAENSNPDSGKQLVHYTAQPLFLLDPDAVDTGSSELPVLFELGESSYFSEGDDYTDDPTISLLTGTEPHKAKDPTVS

[7] = alpha-synuclein stem-loop luciferase translation blockers – H4 neuroglioma cells, luminescence, confirmation (AID 1988); assay type: functional, cell-based
[8] = target: T1, Luciferin 4-monooxygenase; assay: inhibition of purified Photinus pyralis luciferase – biochemical, luminescence, dose response (AID 1891)
[9] = Luminescence Cell-Based Dose Confirmation HTS to Identify Inhibitors of Platelet Dense Granule Release. [Related pubchem assays: 1663 (Primary HTS), 1678 (Summary of Project)]; assay type: functional
[10] = Luminescence-based counterscreen assay for KLF5 inhibitors: dose response cell-based high throughput screening assay to identify cytotoxic compounds using the IEC-6 intestinal epithelial cell line. [Related pubchem assays: 1700 (Primary screen.), 1834 (Confirmation screen.), 1858 (Summary AID.), 1905 (Counterscreen.)]; assay type: functional
[11] = tested on: HT-1080; assay: HT1080 cell viability loss – fluorescence readout (AID 620); assay type: functional, cell-based; conditions: Homo sapiens
[12] = Fluorescence Cell-Based Dose Response to Identify Inhibitors of Thrombin Receptor-Activating Peptide SFLLRN-Mediated P-Selectin Induction on Platelets. [Related pubchem assays: 1663 (Primary HTS), 1889 (retest at dose ), 1891 (counterscreen), 1678 (Project Summary)]; assay type: functional
[13] = HEK-293T viability loss after treatment – luminescence, T-cell screen hits, cytotoxicity control for TCR NF-kB inhibitor project, dose response (AID 489026); assay type: functional, cell-based;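 note: cells exposed to compound about 14 hours before the viability readout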
[14] = blockers of HIV-1 envelope-mediated cell-cell fusion – cherry-pick, dose response (AID 652057); assay type: functional, cell-based
[15] = viability loss in CEM21 cells – cell-based, CellTiter-Glo luminescence, cherry-picked, cytotoxicity control for viral fusion inhibitor project, dose response (AID 652042); assay type: functional;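 note: potency for signal decrease meaning cytotoxicity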
[16] = blockers of HIV-1 ZM109 envelope-driven cell-cell fusion – HeLa effector, CEM target cells, luciferase, cherry-pick, dose response (AID 652058); assay type: functional, cell-based;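 note: luciferase signal from HIV-1 Env mediated cell-cell fusion of effector and target cells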
[17] = off-target signal loss in HeLa-CEM21 co-culture – HeLa F-luc CTL cells, cherry-picked, counter-screen for HIV-1 Env fusion inhibitor project, dose response (AID 652040); assay type: functional, cell-based;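 note: potency for signal decrease marking cytotoxic or nonspecific inhibition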
[18] = HIV-1 AD8 envelope cell-cell fusion blockers – cherry-pick, dose response (AID 652062); assay type: functional, cell-based;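 note: luciferase signal from cell-cell fusion driven by HIV-1 clade B AD8 Env; potency is for inhibitors of fusion seen as a drop in luminescence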
[19] = target: Leucine aminopeptidase (Plasmodium falciparum 3D7, UniProt Q8IL11); assay: P. falciparum M17LAP inhibitors, primary screen, biochemical, fluorogenic H-Leu-NHMec substrate, 1536-well (AID 1619); assay type: functional
Leucine aminopeptidase, sequence (Q8IL11 whole entry): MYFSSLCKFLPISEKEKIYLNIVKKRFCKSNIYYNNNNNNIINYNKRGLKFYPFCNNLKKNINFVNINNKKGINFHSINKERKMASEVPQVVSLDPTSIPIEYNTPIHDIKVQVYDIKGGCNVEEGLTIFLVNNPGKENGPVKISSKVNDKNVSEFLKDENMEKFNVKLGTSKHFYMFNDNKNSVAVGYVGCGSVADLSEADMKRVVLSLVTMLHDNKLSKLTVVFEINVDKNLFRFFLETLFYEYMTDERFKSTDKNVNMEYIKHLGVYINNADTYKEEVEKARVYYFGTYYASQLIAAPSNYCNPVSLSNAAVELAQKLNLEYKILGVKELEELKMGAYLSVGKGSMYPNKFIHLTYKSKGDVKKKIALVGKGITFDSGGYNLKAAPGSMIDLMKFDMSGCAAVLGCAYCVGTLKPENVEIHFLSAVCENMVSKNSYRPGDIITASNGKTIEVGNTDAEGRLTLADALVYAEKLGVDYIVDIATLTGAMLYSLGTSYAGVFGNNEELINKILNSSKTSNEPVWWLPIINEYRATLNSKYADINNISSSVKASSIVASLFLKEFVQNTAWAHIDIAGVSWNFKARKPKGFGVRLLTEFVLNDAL

[20] = viability of uninfected HEp-2 cells – cell-based, HTS, cytotoxicity control for RSV inhibitor project, dose response (AID 2410); assay type: functional; conditions: human respiratory syncytial virus
[21] = cells
[22] = Luminescence Cell-Based Dose Confirmation HTS to Identify Activators of 5'UTR Stem-Loop Driven Alpha-Synuclein mRNA Translation in H4 Neuroglioblastoma Cells. [Related pubchem assays: 1829 (Project Summary), 1814 (Primary HTS)]; assay type: functional
[23] = Luminescence Cell-Based Dose Response HTS to Identify Activators of Luciferase Translation or Activity in H4 […] Cells. [Related pubchem assays: 1829 (Project Summary), 1814 (Primary HTS)]; assay type: functional
[24] = tested on: H4; assay: Luminescence Cell-Based Dose Response HTS to Identify Activators of 5'UTR Stem-Loop Driven Prion Protein mRNA Translation in H4 Neuroglioblastoma Cells. [Related pubchem assays: 1829 (Project Summary), 1814 (Primary HTS)]; assay type: functional; conditions: Homo sapiens
[25] = target: T3, Mannose-6-phosphate isomerase (Homo sapiens, UniProt P34949); assay: MPI enzyme activity inhibition – biochemical, fluorescence intensity, coupled assay, primary screen (AID 1209)
T3 sequence (P34949 whole entry): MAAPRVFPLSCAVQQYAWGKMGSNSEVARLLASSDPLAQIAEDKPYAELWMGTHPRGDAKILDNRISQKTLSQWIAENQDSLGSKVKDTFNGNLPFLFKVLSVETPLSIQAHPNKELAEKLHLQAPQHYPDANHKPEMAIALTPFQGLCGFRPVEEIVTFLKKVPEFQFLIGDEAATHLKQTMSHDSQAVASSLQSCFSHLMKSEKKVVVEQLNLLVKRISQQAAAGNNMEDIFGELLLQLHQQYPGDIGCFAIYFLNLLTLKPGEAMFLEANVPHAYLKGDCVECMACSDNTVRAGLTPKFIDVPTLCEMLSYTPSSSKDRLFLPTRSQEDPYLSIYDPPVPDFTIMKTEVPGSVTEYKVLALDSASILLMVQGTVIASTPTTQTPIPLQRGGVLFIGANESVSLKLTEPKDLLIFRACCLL

[26] = target: T4, Estrogen receptor (Homo sapiens, UniProt P03372); assay: ERα coactivator recruitment enhancers – biochemical, TR-FRET, ERα LBD, dose response (AID 737)
T4 sequence (P03372 whole entry): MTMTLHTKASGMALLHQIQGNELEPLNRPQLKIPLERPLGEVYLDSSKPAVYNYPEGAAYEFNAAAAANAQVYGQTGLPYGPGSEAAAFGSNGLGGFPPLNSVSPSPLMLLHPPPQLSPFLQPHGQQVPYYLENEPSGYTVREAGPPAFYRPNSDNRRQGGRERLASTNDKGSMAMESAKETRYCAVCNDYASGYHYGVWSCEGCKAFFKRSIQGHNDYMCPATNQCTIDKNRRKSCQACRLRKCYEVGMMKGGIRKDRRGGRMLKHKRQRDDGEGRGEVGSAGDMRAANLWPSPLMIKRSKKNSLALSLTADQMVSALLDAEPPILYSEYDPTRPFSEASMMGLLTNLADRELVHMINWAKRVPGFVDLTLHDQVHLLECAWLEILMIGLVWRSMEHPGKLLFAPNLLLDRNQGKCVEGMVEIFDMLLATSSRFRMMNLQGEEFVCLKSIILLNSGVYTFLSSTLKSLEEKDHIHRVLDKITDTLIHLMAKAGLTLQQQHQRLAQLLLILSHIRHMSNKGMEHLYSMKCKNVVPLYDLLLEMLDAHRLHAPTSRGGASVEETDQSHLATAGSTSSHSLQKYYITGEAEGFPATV

[27] = tested on: Streptococcus sp. 'group A'; assay: Streptococcus pyogenes SK(-)GAS viability under kanamycin – luminescence, BacTiterGlo, confirmation, counter-screen for streptokinase expression inhibitor project, dose response (AID 1900); assay type: functional, organism-based
[28] = cells; assay type: functional, cell-based
[29] = Trypanosoma cruzi growth suppression in host cells – NIH3T3 host cells, beta-gal luminescence, confirmation (AID 2044); assay type: functional, cell-based;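 note: intracellular parasites grown in NIH/3T3 mouse fibroblasts as host cells; luminescent beta-galactosidase reporter signal from transgenic T. cruzi replicating inside host cells; inhibitors lower the luminescence signal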
[30] = cells; assay type: functional, cell-based; remark: listed apart in the source
[31] = NIH3T3 cell viability loss – ATP luminescence, mouse fibroblasts, counter-screen, dose response (AID 2010); assay type: functional, cell-based;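 note: cells exposed to compound for about 90 hours before reading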
[32] = tested on: Streptococcus; assay: GAS UMAA2166 growth inhibition – luminescence, BacTiterGlo, counter-screen for streptokinase expression inhibitor project, dose response (AID 1915); assay type: functional, organism-based;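 note: potency for reduction of bacterial viability or growth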
[33] = target: T5, Microphthalmia-associated transcription factor (Homo sapiens, UniProt O75030); assay: reducers of TRPM1 reporter luminescence, concentration series – cell-based, SK-MEL-5, cherry-picked, set 3, MITF inhibitor project, dose response (AID 493073); assay type: functional;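 note: SK-MEL-5 melanoma cells with luciferase driven by the MITF target TRPM1 promoter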
T5 sequence (O75030 whole entry): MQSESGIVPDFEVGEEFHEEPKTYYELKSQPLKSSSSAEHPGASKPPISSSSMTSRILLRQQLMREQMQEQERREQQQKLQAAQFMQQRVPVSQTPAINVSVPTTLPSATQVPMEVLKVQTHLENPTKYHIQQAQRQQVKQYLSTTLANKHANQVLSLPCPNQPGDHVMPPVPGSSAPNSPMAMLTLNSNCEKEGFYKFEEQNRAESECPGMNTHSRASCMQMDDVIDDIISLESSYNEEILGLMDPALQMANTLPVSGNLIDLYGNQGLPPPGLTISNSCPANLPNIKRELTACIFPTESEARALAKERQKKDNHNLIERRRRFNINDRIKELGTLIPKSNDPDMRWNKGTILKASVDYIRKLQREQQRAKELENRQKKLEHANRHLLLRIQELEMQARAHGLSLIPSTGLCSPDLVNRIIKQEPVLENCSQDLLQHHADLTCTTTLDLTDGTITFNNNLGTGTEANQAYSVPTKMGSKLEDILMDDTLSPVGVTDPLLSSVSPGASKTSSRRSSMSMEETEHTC

[34] = tested on: INS1; assay: INS-1E survival protection against cytokine death – cell-based, luminescence, retest, dose response (AID 449756); assay type: functional; conditions: Rattus norvegicus;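 note: cell death triggered by IL-1 beta plus TNF-alpha plus IFN-gamma mixture; protective hits raise ATP signal compared with cytokine alone wells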
[35] = target: Eukaryotic translation initiation factor 4H (Homo sapiens, UniProt Q15056); assay: eIF4H binding inhibition – biochemical, uHTS, fluorescence polarization, translation initiation inhibitor project, primary screen (AID 2012)
[36] = target: Polyadenylate-binding protein 1 (Homo sapiens, UniProt P11940); assay: blockers of PABP interaction with poly(A) – biochemical, fluorescence polarization, […] (AID 2014)
Polyadenylate-binding protein 1, sequence (P11940 whole entry): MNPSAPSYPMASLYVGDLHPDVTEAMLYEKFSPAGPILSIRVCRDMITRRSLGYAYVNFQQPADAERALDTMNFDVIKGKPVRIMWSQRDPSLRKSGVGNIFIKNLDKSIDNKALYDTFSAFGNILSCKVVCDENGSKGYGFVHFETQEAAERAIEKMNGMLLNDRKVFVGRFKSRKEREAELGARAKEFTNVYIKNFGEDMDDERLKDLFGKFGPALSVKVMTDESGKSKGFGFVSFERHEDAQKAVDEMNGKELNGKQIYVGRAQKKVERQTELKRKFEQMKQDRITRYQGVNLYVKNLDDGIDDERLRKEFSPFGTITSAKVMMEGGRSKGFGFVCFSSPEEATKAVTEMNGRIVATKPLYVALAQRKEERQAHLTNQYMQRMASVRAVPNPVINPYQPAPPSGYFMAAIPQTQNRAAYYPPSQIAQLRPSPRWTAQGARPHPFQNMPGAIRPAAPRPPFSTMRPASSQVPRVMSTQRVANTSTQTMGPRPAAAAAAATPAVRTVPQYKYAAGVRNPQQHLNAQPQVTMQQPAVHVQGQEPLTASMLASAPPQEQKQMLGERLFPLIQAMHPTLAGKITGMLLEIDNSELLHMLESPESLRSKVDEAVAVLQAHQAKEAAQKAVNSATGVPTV

Large T antigen, sequence (P03070 whole entry): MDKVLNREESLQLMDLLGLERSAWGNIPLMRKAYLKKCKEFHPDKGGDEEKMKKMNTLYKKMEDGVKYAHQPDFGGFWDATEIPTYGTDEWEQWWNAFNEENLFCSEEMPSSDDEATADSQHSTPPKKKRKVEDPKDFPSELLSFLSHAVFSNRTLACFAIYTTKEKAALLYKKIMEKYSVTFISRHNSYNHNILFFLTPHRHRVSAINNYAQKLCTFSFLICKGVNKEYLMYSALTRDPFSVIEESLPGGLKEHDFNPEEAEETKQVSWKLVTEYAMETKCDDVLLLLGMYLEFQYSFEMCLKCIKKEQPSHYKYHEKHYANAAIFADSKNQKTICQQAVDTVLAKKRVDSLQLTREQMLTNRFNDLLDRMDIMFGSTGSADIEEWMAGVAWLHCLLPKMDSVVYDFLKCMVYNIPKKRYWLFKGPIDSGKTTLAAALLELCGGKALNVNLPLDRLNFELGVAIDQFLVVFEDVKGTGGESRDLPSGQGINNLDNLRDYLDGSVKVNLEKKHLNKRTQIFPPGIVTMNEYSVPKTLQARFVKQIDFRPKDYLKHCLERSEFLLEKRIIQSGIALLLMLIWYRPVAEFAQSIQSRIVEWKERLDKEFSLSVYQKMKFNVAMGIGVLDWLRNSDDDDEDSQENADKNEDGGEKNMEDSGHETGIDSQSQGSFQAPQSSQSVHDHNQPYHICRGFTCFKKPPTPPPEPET

SMILES: N#C/C(=C\c1ccc(N2CCOCC2)o1)C(=O)Nc1ccc(O)cc1
- IC50 [1]: 15.2 µM (active)
- EC50 [2]: > 100 µM (active)

SMILES: COC(=O)c1nn(-c2ccc3c(c2)CCN3C(C)=O)cc1O
- EC50 [3]: 2.45 µM (inconclusive)
- EC50 [4]: > 100 µM (not active)
- EC50 [5]: 0.29 µM (active)
- EC50 [6]: 0.665 µM (active)
- EC50 [7]: 1.78 µM (active)
- EC50 [8]: 15.8 µM (active)
- EC50 [9]: 1.06 µM (active)
- IC50 [10]: > 39.8 µM (not active)
- EC50 [11]: > 50 µM (not active)
- EC50 [12]: < 100 µM (not active)
- IC50 [13]: > 80 µM (inactive)
- AC50 [14]: 5.72 µM (active)
- AC50 [15]: 45.5 µM (active)
- AC50 [16]: 18.5 µM (active)
- AC50 [17]: 3.07 µM (active)
- AC50 [18]: 6.43 µM (active)

SMILES: COc1ccc2oc(C)c(C(=O)NN)c2c1
- IC50 [19]: 26.6 µM (active)

SMILES: COc1cccc(C(=O)Nc2cc(NC(=O)c3cccs3)ccc2C)c1OC
- CC50 [20]: 38.2 µM (active)
- IC50 [21]: 48.3 µM (active)

SMILES: Nc1[nH]ncc1-c1ccc(Cl)cc1
- IC50 [19]: 38.2 µM (active)

SMILES: Cc1cc(N=C(S)Nc2ccc(C)c(Cl)c2)[nH]n1
- EC50 [22]: 8.11 µM (active)
- EC50 [23]: 76.2 µM (active)
- EC50 [24]: 14.8 µM (active)
- IC50 [25]: > 50 µM (not active)

SMILES: Cc1nn(-c2ccccc2)c2sc(C(=O)c3c(N)n(C)c(=O)n(C)c3=O)cc12
- EC50 [26]: 12.6 µM (active)

SMILES: CCCOc1ccc(-c2nnc(-c3cccs3)o2)cc1
- EC50 [4]: 7.29 µM (active)
- EC50 [11]: > 50 µM (not active)

SMILES: COc1ccc(C(=O)N/N=C/c2cc(Br)ccc2O)cc1OC
- EC50 [27]: 0.959 µM (active)
- EC50 [28]: 11.3 µM (active)
- IC50 [10]: 12.2 µM (not active)
- EC50 [29]: 3.76 µM (active)
- EC50 [30]: > 350 µM (not active)
- EC50 [31]: > 60 µM (not active)
- EC50 [32]: 5.78 µM (active)
- AC50 [33]: 4.76 µM (active)
- AC50 [34]: 1.97 µM (active)

SMILES: CCn1/c(=N/C(=O)c2ccc(N3C(=O)CCC3=O)cc2)sc2c(OC)ccc(OC)c21
- IC50 [35]: 14.7 µM (active)
- EC50 [26]: 7.94 µM (active)
- IC50 [36]: > 100 µM (inactive)
